In general, EC50 refers to the concentration that produces a half-maximal response. Lower therefore signals an effect from little substance.

Values after ≈ are worked out from the molar mass of the structure shown. Where a name gives a salt, the structure may show the parent alone.

Assay [1] deals with intraocular pressure (IOP) in conscious rabbits. In words: Measurement of the intraocular pressure in conscious rabbits. It counts as in vivo, rabbit. The conditions noted are these: 2% solution, 100 μl into one eye; for IOP-Lowering Effect, % decrease in IOP: Schioetz tonometer, relative to initial value; for IOP-Lowering Effect, Duration: unit of duration not given. Here is the method:
For this experiment rabbits of both sexes and weighin 2 to 3 kg are used. The intraocular pressure (IOP) is measured with a Schioetz tonometer after corneal anaesthesia with a 2% novocaine solution. A 2% solution of a compound according to the invention is prepared, using the stoichiometric amount of 0.1N HCl, by dissolving it or its salt directly in water. After the initial value has been determined, 100 μl of the solution of the test compound are […] into one of the eyes, and the vehicle is instilled into the other eye. The IOP is measured at defined time intervals, i.e. 0.5, 1, 2, 3, 4 and 5 hours. The percentage decreases in the IOP is calculated using the initial value.

In the next assay the test system is Guinea pig atrium. In words: Positive inotropic activity, electrically stimulated isolated guinea pig atrium. To be noted: contractility of isolated atrium, Ringer's solution, 32° C., recorded 7 to 10 minutes; for EC50: Cavia porcellus. Here is the method: Guinea pigs of both sexes and weighing 400 g are sacrificed, and the heart is removed and placed in Ringer's solution at room temperature. Both the left and the right atria are then isolated, fixed in an organ holder and placed in a bath containing Ringer's solution and maintained at a temperature of 32° C. A mixture of 95% O2 and 5% CO2 is bubbled through the organ bath. Electrical stimulation of the atrium is then carried out. A compound according to the invention is dissolved in water to give a solution of known concentration and is added to the bath. The contractility of the atrium is recorded for 7 to 10 minutes via an […] strain gage on a Nihon Kohden 4-channel pen recorder. The activity is expressed on the basis of the resulting data as the EC50.
Data for compounds disclosed in Indian Patent No. 163 242 are also provided for comparison.

Turning to `C=C[C@@]1(C)CC(=O)[C@]2(O)[C@@]3(C)[C@@H](O)CCC(C)(C)[C@@H]3[C@H](OC(=O)CCN3CCN(C)CC3)[C@H](OC(=O)COCC)[C@@]2(C)O1`, in assay [1], the “IOP-Lowering Effect, % decrease in IOP” value is listed as 32% and the “IOP-Lowering Effect, Duration” value is given as > 360.

Regarding `C=C[C@@]1(C)CC(=O)[C@]2(O)[C@@]3(C)[C@@H](O)CCC(C)(C)[C@@H]3[C@H](OC(=O)CCN3CCOCC3)[C@H](OC(=O)COCC)[C@@]2(C)O1` [drawing 34], a half-maximal effect in the assay with Guinea pig atrium (EC50) was put at 0.044 µg/mL (≈ 0.0739 µM).

Consider `C=C[C@@]1(C)CC(=O)[C@]2(O)[C@@]3(C)[C@@H](O)CCC(C)(C)[C@@H]3[C@H](OC(=O)CN3CCCCC3)[C@H](O)[C@@]2(C)O1` [drawing 36, reference compound], for which, in the assay with Guinea pig atrium, the EC50 worked out at 1.8 µg/mL (≈ 3.65 µM).

Consider `C=C[C@@]1(C)CC(=O)[C@]2(O)[C@@]3(C)[C@@H](O)CCC(C)(C)[C@@H]3[C@H](OC(=O)CCN3CCOCC3)[C@H](OC(=O)COCC)[C@@]2(C)O1` [drawing 39], for which, in assay [1], the “IOP-Lowering Effect, % decrease in IOP” value was 31% and the “IOP-Lowering Effect, Duration” value was > 360.

In the case of `C=C[C@@]1(C)CC(=O)[C@]2(O)[C@@]3(C)[C@@H](O)CCC(C)(C)[C@@H]3[C@H](OC(=O)CCN(C)C)[C@H](OC(=O)COC)[C@@]2(C)O1` [CO(CH2)2 N(CH3)2.2HCl, COCH2 OCH3, 1α,9α-Dihydroxy-6β-(3-N,N-dimethylamino-propionyloxy)-8,13-epoxy-7β-methoxy-acetoxy-labd-14-en-11-one], a half-maximal effect in the assay with Guinea pig atrium (EC50) was put at 0.024 µg/mL.

Take `C=C[C@@]1(C)CC(=O)[C@]2(O)[C@@]3(C)[C@@H](O)CCC(C)(C)[C@@H]3[C@H](OC(=O)CCN3CCOCC3)[C@H](O)[C@@]2(C)O1` [reference compound]: in the assay on Guinea pig atrium, the “Guinea pig atrium EC50” value is given as “Not active”.

Take `C=C[C@@]1(C)CC(=O)[C@]2(O)[C@@]3(C)[C@@H](O)CCC(C)(C)[C@@H]3[C@H](OC(=O)COC)[C@H](OC(=O)CCN(C)C)[C@@]2(C)O1` [COCH2 OCH3, CO(CH2)2 NMe2.HCl, 1α,9α-Dihydroxy-7β-(3-N,N-dimethylamino-propionyloxy)-8,13-epoxy-6β-methoxyacetoxy-labd-14-en-11-one]: the midpoint of the response in the assay with Guinea pig atrium, the EC50, lay at 0.77 µg/mL.

As for `C=C[C@@]1(C)CC(=O)[C@]2(O)[C@@]3(C)[C@@H](O)CCC(C)(C)[C@@H]3[C@H](OC(=O)CCN3CCCCC3)[C@H](OC(=O)COc3ccccc3)[C@@]2(C)O1`, in assay [1], the “IOP-Lowering Effect, % decrease in IOP” value stood at 31% and the “IOP-Lowering Effect, Duration” value is 300.

With `C=C[C@@]1(C)CC(=O)[C@]2(O)[C@@]3(C)[C@@H](O)CCC(C)(C)[C@@H]3[C@H](OC(=O)CN3CCCCC3)[C@H](O)[C@@]2(C)O1` [drawing 41, reference compound], the “IOP-Lowering Effect, % decrease in IOP” value in assay [1] is on record as “Not active”.
